These results are taken from US20260085053A1, “BENZOFURAN DERIVATIVES AS SIK INHIBITORS AND THE USE THEREOF” (BEONE MEDICINES I GMBH, priority 2023, published 2026).

Experiment [1] deals with T1, SIK1 kinase (aa1-303, Thermo Fisher) (Homo sapiens, UniProt P57059).
T1 construct: SIK1 kinase (aa1-303, Thermo Fisher); purchased Thermo Fisher
Nature of the experiment: Biochemical activities determination for SIK1 protein (TR-FRET). As to conditions: 110 uM ATP, 0.5 μM STK1 substrate. How it is done: 1. Biochemical Activities Determination for SIK1 Protein
(§1) Compounds were tested for inhibition of SIK1 kinase (aa1-303, Thermo Fisher) in assays based on the time-resolved fluorescence-resonance energy transfer (TR-FRET) methodology. The assays were carried out in 384-well low volume white plates in a reaction mixture containing SIK1 kinase, 110 uM ATP, 0.5 μM STK1 substrate and 0-10 μM compound in buffer containing 25 mM Tris, 0.01% Trition X-100, 0.5 mM EGTA, 5 mM MgCl2, 2.5 mM DTT, pH=7.5. The kinase was incubated with compounds for 60 minutes at room temperature and the reaction was initiated by the addition of ATP and STK1 substrate. After reaction at room temperature for 180 minutes, an equal volume of stop/detection solution was added according to the manufacture's instruction (CisBio Bioassays). The stop/detection solution contained STK Antibody-Cryptate and XL665-conjugated streptavidin (Cat: 62ST1PEC, Cisbio) in Detection Buffer (Cat: 62SDBRDF, Cisbio). Plates were sealed and incubated at room temperature for overnight, and the TR-FRET signals (ratio of fluorescence emission at 665 nm over emission at 620 nm with excitation at 337 nm wavelength) were recorded on a PHERAstar FS plate reader (BMG Labtech). Phosphorylation of STK1 substrate led to the binding of STK Antibody-Cryptate to the biotinylated SIK1 substrate, which places fluorescent donor (Eu^3+ crypate) in close proximity to the accepter (Streptavidin-XL665), thus resulting in a high degree of fluorescence resonance energy transfer from the donor fluorophore (at 620 nm) to the acceptor fluorophore (at 665 nm). […] The IC50 for each compound was derived from fitting the data to the four-parameter logistic equation by Dotmatics.

The target of experiment [2] is T2, SIK3 kinase (aa59-365, Thermo Fisher) (Homo sapiens, UniProt Q9Y2K2).
T2 construct: SIK3 kinase (aa59-365, Thermo Fisher); purchased Thermo Fisher
T2 sequence (Q9Y2K2 59-365): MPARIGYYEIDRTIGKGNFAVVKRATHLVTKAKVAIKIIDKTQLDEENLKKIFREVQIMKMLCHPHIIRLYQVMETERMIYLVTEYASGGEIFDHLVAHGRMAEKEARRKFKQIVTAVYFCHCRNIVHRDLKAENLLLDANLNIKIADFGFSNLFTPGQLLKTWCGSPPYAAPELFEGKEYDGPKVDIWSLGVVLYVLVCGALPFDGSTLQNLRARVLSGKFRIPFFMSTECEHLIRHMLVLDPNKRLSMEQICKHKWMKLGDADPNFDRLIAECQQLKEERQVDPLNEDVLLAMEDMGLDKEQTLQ
Description: Biochemical activities determination for SIK3 protein (TR-FRET). As to conditions: 125 uM ATP, 0.5 μM STK1 substrate. The procedure:
3. Biochemical Activities Determination for SIK3 Protein
Compounds were tested for inhibition of SIK3 kinase (aa59-365, Thermo Fisher) in assays based on the time-resolved fluorescence-resonance energy transfer (TR-FRET) methodology. The assays were carried out in 384-well low volume white plates in a reaction mixture containing SIK3 kinase, 125 uM ATP, 0.5 μM STK1 substrate and 0-10 μM compound in buffer containing 25 mM Tris, 0.01% Trition X-100, 0.5 mM EGTA, 5 mM MgCl2, 2.5 mM DTT, PH=7.5. The kinase was incubated with compound for 60 minutes at room temperature and the reaction was initiated by the addition of ATP and STK1 substrate. After reaction at room temperature for 180 minutes, an equal volume of stop/detection solution was added according to the manufacture's instruction (CisBio Bioassays). The stop/detection solution contained STK Antibody-Cryptate and XL665-conjugated streptavidin (Cat: 62ST1PEC, Cisbio) in Detection Buffer (Cat: 62SDBRDF, Cisbio). Plates were sealed and incubated at room temperature for overnight, and the TR-FRET signals (ratio of fluorescence emission at 665 nm over emission at 620 nm with excitation at 337 nm wavelength) were recorded on a PHERAstar FS plate reader (BMG Labtech). Phosphorylation of STK1 substrate led to the binding of STK Antibody-Cryptate to the biotinylated STK1 substrate, which places fluorescent donor (Eu^3+ crypate) in close proximity to the accepter (Streptavidin-XL665), thus resulting in a high degree of fluorescence resonance energy transfer from the donor fluorophore (at 620 nm) to the acceptor fluorophore (at 665 nm). […] The IC50 for each compound was derived from fitting the data to the four-parameter logistic equation by Dotmatics.
For orientation: Time-resolved FRET reads energy transfer from a long-lived donor to a nearby acceptor.

Experiment [3] has as its target T3, SIK2 kinase (full length, Thermo Fisher) (Homo sapiens, UniProt Q9H0K1).
T3 construct: SIK2 kinase (full length, Thermo Fisher); purchased Thermo Fisher
Nature of the experiment: Biochemical activities determination for SIK2 protein (TR-FRET). The note with it: 80 uM ATP, 0.5 μM substrate. How it is done:
2. Biochemical Activities Determination for SIK2 Protein
as §1, with “of SIK2” for “of SIK1”, “kinase (full length,” for “kinase (aa1-303,”, “containing SIK2” for “containing SIK1”, “kinase, 80” for “kinase, 110”, “μM […]” for “μM STK1”, “biotinylated STK1” for “biotinylated SIK1”

The IC50 is the concentration that gives 50% inhibition.

T3 sequence (Q9H0K1 whole entry): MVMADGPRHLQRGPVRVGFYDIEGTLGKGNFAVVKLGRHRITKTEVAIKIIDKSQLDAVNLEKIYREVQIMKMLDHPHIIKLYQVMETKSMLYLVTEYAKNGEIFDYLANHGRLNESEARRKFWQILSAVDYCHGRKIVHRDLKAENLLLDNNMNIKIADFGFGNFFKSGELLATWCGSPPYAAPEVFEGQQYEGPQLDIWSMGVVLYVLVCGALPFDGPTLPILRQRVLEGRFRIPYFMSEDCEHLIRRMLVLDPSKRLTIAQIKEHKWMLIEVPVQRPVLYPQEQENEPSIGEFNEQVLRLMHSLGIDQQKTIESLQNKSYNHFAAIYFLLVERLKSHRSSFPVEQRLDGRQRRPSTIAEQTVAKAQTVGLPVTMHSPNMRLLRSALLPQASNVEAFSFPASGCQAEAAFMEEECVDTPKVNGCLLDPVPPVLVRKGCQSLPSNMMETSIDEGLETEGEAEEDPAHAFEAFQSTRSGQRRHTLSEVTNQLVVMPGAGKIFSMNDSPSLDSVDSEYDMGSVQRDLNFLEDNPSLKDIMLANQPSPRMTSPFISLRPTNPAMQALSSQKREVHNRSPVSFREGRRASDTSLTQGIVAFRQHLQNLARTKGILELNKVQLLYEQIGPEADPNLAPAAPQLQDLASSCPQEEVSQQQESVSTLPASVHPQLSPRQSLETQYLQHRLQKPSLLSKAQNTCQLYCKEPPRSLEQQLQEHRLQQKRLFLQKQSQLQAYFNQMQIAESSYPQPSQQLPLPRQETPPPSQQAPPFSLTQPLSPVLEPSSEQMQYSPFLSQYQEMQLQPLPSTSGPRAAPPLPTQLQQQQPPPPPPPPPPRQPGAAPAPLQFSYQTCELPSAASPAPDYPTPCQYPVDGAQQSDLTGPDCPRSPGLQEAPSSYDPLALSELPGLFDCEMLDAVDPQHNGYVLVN
T1 sequence (P57059 1-303): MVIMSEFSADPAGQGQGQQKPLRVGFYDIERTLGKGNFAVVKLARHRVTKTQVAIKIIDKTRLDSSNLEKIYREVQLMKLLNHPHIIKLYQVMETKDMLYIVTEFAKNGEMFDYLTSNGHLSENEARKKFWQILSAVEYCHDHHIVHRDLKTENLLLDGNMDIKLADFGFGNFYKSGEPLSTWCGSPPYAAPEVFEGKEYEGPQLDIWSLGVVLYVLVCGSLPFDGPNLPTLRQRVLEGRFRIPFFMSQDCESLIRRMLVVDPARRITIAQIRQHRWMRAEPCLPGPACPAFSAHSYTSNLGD

On to `O=C1c2c(cc(-c3coc4cc(-c5cnn(C6CCOCC6)c5)ccc34)cc2OC(F)F)CCN1CC(F)(F)F` [Compound 41, 8-(difluoromethoxy)-6-(6-(1-(tetrahydro-2H-pyran-4-yl)-1H-pyrazol-4-yl)benzofuran-3-yl)-2-(2,2,2-trifluoroethyl)-3,4-dihydroisoquinolin-1 (2H)-one], for which the values for the IC50 in experiment [1], in experiment [2] and in experiment [3] were 1710 nM, 69 nM and 33 nM, respectively.
As to `O=C1c2c(cc(-c3coc4cc(-c5cnn(C6CNC6)c5)ccc34)cc2OC(F)F)CCN1CC(F)(F)F` [Compound 42, 6-(6-(1-(azetidin-3-yl)-1H-pyrazol-4-yl)benzofuran-3-yl)-8-(difluoromethoxy)-2-(2,2,2-trifluoroethyl)-3,4-dihydroisoquinolin-1 (2H)-one], the IC50 worked out at 1590 nM in experiment [1], 115 nM in experiment [2] and 25 nM in experiment [3].
Turning to `O=C1c2c(cc(-c3coc4cc(-c5cnn(C6CCNCC6)c5)ccc34)cc2OC(F)F)CCN1CC(F)(F)F` [Compound 43, 8-(difluoromethoxy)-6-(6-(1-(piperidin-4-yl)-1H-pyrazol-4-yl)benzofuran-3-yl)-2-(2,2,2-trifluoroethyl)-3,4-dihydroisoquinolin-1 (2H)-one], the IC50 in experiment [1] stood at 676 nM; in experiment [2], 57 nM; in experiment [3], 8 nM.
As to `CN1CC(n2cc(-c3ccc4c(-c5cc6c(c(OC(F)F)c5)C(=O)N(CC(F)(F)F)CC6)coc4c3)cn2)C1` [Compound 44, 8-(difluoromethoxy)-6-(6-(1-(1-methylazetidin-3-yl)-1H-pyrazol-4-yl)benzofuran-3-yl)-2-(2,2,2-trifluoroethyl)-3,4-dihydroisoquinolin-1 (2H)-one], the IC50 was 538 nM in experiment [1], 45 nM in experiment [2] and 5.2 nM in experiment [3].
Taken in the same sequence, the figures for `N#CCCN1CC(n2cc(-c3ccc4c(-c5cc6c(c(OC(F)F)c5)C(=O)N(CC(F)(F)F)CC6)coc4c3)cn2)C1` [Compound 45, 3-(3-(4-(3-(8-(difluoromethoxy)-1-oxo-2-(2,2,2-trifluoroethyl)-1,2,3,4-tetrahydroisoquinolin-6-yl)benzofuran-6-yl)-1H-pyrazol-1-yl)azetidin-1-yl) propanenitrile] were 560 nM, 28 nM and 9.8 nM.
Regarding `CN1CCC(n2cc(-c3ccc4c(-c5cc6c(c(OC(F)F)c5)C(=O)N(CC(F)(F)F)CC6)coc4c3)cn2)CC1` [Compound 46, 8-(difluoromethoxy)-6-(6-(1-(1-methylpiperidin-4-yl)-1H-pyrazol-4-yl)benzofuran-3-yl)-2-(2,2,2-trifluoroethyl)-3,4-dihydroisoquinolin-1 (2H)-one], the IC50 in experiment [1] is 430 nM; in experiment [2] it was 36.1 nM; in experiment [3] it was 7.8 nM.
Take `CN1CCC(n2cc(-c3ccc4c(-c5cc6c(c(OC(F)F)c5)C(=O)N(CC(F)(F)F)CC6)coc4c3)cn2)C1` (stereo not drawn) [Compound 47, 8-(difluoromethoxy)-6-(6-(1-(1-methylpyrrolidin-3-yl)-1H-pyrazol-4-yl)benzofuran-3-yl)-2-(2,2,2-trifluoroethyl)-3,4-dihydroisoquinolin-1 (2H)-one]: the IC50 in experiment [1] turned out to be 335 nM; in experiment [2] it was 33 nM; in experiment [3], 3 nM.
The matching figures for `O=C1c2c(cc(-c3coc4cc(-c5cnn(C6CCNC6)c5)ccc34)cc2OC(F)F)CCN1CC(F)(F)F` (stereo not drawn) [Compound 48, 8-(difluoromethoxy)-6-(6-(1-(pyrrolidin-3-yl)-1H-pyrazol-4-yl)benzofuran-3-yl)-2-(2,2,2-trifluoroethyl)-3,4-dihydroisoquinolin-1 (2H)-one]: 524 nM, 63 nM and 11 nM.
Consider `COc1cc(-c2coc3cc(-c4cnn(C5CCOC5)c4)ccc23)cc2c1C(=O)N(CC(F)(F)F)CC2` (stereo not drawn) [Compound 49, 8-methoxy-6-(6-(1-(tetrahydrofuran-3-yl)-1H-pyrazol-4-yl)benzofuran-3-yl)-2-(2,2,2-trifluoroethyl)-3,4-dihydroisoquinolin-1 (2H)-one], for which the IC50 in experiment [1] came out at 337 nM; in experiment [2], 25 nM; in experiment [3], 11 nM.
Taken in the same sequence, the figures for `COc1cc(-c2coc3cc(-c4cnn(C5CCOCC5)c4)ccc23)cc2c1C(=O)N(CC(F)(F)F)CC2` [Compound 50, 8-methoxy-6-(6-(1-(tetrahydro-2H-pyran-4-yl)-1H-pyrazol-4-yl)benzofuran-3-yl)-2-(2,2,2-trifluoroethyl)-3,4-dihydroisoquinolin-1 (2H)-one] were 347 nM, 34 nM and 17 nM.
Taken in the same sequence, the figures for `COc1cc(-c2coc3cc(-c4cnn(C5CCN(C)C5)c4)ccc23)cc2c1C(=O)N(CC(F)(F)F)CC2` (stereo not drawn) [Compound 51, 8-methoxy-6-(6-(1-(1-methylpyrrolidin-3-yl)-1H-pyrazol-4-yl)benzofuran-3-yl)-2-(2,2,2-trifluoroethyl)-3,4-dihydroisoquinolin-1 (2H)-one] were 317 nM, 26 nM and 3.7 nM.
Taken in the same sequence, the figures for `COc1cc(-c2coc3cc(-c4cnn(C5CCN(C)CC5)c4)ccc23)cc2c1C(=O)N(CC(F)(F)F)CC2` [Compound 52, 8-methoxy-6-(6-(1-(1-methylpiperidin-4-yl)-1H-pyrazol-4-yl)benzofuran-3-yl)-2-(2,2,2-trifluoroethyl)-3,4-dihydroisoquinolin-1 (2H)-one] were 212 nM, 23 nM and 4.9 nM.
Consider `COc1cc(-c2coc3cc(-c4cnn(C5CN(C)C5)c4)ccc23)cc2c1C(=O)N(CC(F)(F)F)CC2` [Compound 53, 8-methoxy-6-(6-(1-(1-methylazetidin-3-yl)-1H-pyrazol-4-yl)benzofuran-3-yl)-2-(2,2,2-trifluoroethyl)-3,4-dihydroisoquinolin-1 (2H)-one], for which the IC50 was 294 nM in experiment [1], 19 nM in experiment [2] and 2.8 nM in experiment [3].
